In this assay the target is T1, human M4 muscarinic acetylcholine receptor (Homo sapiens, UniProt P08173).
T1 construct: expressed in transfected cells; host or cells: CHO-K1
T1 sequence (P08173 1-479): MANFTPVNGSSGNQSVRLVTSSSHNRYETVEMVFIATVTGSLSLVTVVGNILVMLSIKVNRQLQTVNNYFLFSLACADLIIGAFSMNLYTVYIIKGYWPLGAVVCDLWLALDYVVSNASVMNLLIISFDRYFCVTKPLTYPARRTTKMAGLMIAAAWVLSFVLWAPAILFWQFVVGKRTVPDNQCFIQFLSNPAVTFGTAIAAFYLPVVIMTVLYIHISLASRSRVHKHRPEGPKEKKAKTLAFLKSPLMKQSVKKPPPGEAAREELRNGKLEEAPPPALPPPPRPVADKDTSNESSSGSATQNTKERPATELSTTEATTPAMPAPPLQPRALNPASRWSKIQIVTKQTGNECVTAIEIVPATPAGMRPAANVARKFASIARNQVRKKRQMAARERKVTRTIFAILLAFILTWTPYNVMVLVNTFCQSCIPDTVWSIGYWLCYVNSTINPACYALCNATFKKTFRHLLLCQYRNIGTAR
In words: human FLIPR-based M4 PAM assay (CHO-K1 cells with human M4 receptor and Gaqi5, calcium dye fluorescence). Type of assay: cell-based. To be noted: inflection point (IP) of dose response curve, acetylcholine added at 20% of maximum response, read-out: M4 FLIPPR Hu IP. A digest of the protocol:
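CHO-K1 cells stably expressing human M4 with chimeric Gaqi5, calcium-dye loaded ~1 h at 37° C; compound added at increasing concentrations 4 min before acetylcholine at an EC20 concentration (sometimes a further EC70 addition).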
Turning to `N#Cc1ccc(-c2cnn(C[C@H]3CC[C@H](F)C3)c2)c(-c2ccc3cccnc3c2)n1` [Example 68, 5-(1-(((1S,3S)-3-fluorocyclopentyl)methyl)-1H-pyrazol-4-yl)-6-(quinolin-7-yl)picolinonitrile], the EC50 was 38 nM.

In the case of `Cc1cn2ccc(-c3nc(C#N)ccc3-c3cnn(C[C@H]4CC[C@H](F)C4)c3)cc2n1` [Example 69, 5-(1-(((1S,3S)-3-fluorocyclopentyl)methyl)-1H-pyrazol-4-yl)-6-(2-methylimidazo[1,2-a]pyridin-7-yl)picolinonitrile], the EC50 came out at 25 nM.

For `Cn1cnc2cc(-c3nc(C#N)ccc3-c3cnn(C[C@@H]4CC[C@@H](F)C4)c3)ccc21` [Example 70, 5-(1-(((1R,3R)-3-fluorocyclopentyl)methyl)-1H-pyrazol-4-yl)-6-(1-methyl-1H-benzo[d]imidazol-5-yl)picolinonitrile], the EC50 worked out at 49 nM.

With `N#Cc1ccc(-c2cnn(CC3C[C@H](F)[C@@H](F)C3)c2)c(-c2ccn3ccnc3c2)n1` [Example 71, 5-(1-(((3S,4S)-3,4-difluorocyclopentyl)methyl)-1H-pyrazol-4-yl)-6-(imidazo[1,2-a]pyridin-7-yl)picolinonitrile], the EC50 worked out at 26 nM.

Regarding `Cn1cnc2cc(-c3nc(C#N)ccc3-c3cnn(CC4C[C@H](F)[C@@H](F)C4)c3)ccc21` [Example 72, 5-(1-(((3S,4S)-3,4-difluorocyclopentyl)methyl)-1H-pyrazol-4-yl)-6-(1-methyl-1H-benzo[d]imidazol-5-yl)picolinonitrile], the EC50 was 41 nM.

`CC1(Cn2cc(-c3ccc(C#N)nc3-c3cnc4c(c3)C(=O)OC4)cn2)CCCC1` [Example 73, 5-(1-((1-methylcyclopentyl)methyl)-1H-pyrazol-4-yl)-6-(5-oxo-5,7-dihydrofuro [3,4-b]pyridin-3-yl) picolinonitrile]: the EC50 is 41 nM.

For `CC1(Cn2cc(-c3ccc(C#N)nc3-c3ccn4c(F)cnc4c3)cn2)CCCC1` [Example 74, 6-(3-fluoroimidazo[1,2-a]pyridin-7-yl)-5-(1-((1-methylcyclopentyl)methyl)-1H-pyrazol-4-yl)picolinonitrile], the EC50 is 58 nM.

Turning to `CC1(Cn2cc(-c3ccc(C#N)nc3-c3ccn4ncnc4c3)cn2)CCCC1` [Example 75, 6-([1,2,4]triazolo[1,5-a]pyridin-7-yl)-5-(1-((1-methylcyclopentyl)methyl)-1H-pyrazol-4-yl)picolinonitrile], the EC50 was determined as 31 nM.

Turning to `CC1(Cn2cc(-c3ccc(C#N)nc3-c3ccn4cc(C(F)F)nc4c3)cn2)CCCC1` [Example 76, 6-(2-(difluoromethyl)imidazo [1,2-a]pyridin-7-yl)-5-(1-((1-methylcyclopentyl)methyl)-1H-pyrazol-4-yl)picolinonitrile], the EC50 worked out at 23 nM.

`CC1(Cn2cc(-c3ccc(C#N)nc3-c3ccn4cncc4c3)cn2)CCCC1` [Example 77, 6-(imidazo[1,5-a]pyridin-7-yl)-5-(1-((1-methylcyclopentyl)methyl)-1H-pyrazol-4-yl)picolinonitrile]: the EC50 came to 66 nM.

Turning to `CC1(Cn2cc(-c3ccc(C#N)nc3-c3ccn4nc(CF)nc4c3)cn2)CCCC1` [Example 78, 6-(2-(fluoromethyl)-[1,2,4]triazolo[1,5-a]pyridin-7-yl)-5-(1-((1-methylcyclopentyl)methyl)-1H-pyrazol-4-yl)picolinonitrile], the EC50 was determined as 29 nM.

Regarding `CC1(Cn2cc(-c3ccc(C#N)nc3-c3ccn4nccc4c3)cn2)CCCC1` [Example 79, 5-(1-((1-methylcyclopentyl)methyl)-1H-pyrazol-4-yl)-6-(pyrazolo[1,5-a]pyridin-5-yl) picolinonitrile], the EC50 worked out at 80 nM.

`Cc1nc2cc(-c3nc(C#N)ccc3-c3cnn(CC4(C)CCCC4)c3)cnc2o1` [Example 80, 5-(1-((1-methylcyclopentyl)methyl)-1H-pyrazol-4-yl)-6-(2-methyloxazolo[5,4-b]pyridin-6-yl)picolinonitrile]: the EC50 was 65 nM.

With `CC1(Cn2ncc(-c3ccc(C#N)nc3-c3ccn4ccnc4c3)c2Cl)CCCC1` [Example 81, 5-(5-chloro-1-((1-methylcyclopentyl)methyl)-1H-pyrazol-4-yl)-6-(imidazo[1,2-a]pyridin-7-yl)picolinonitrile], the EC50 came to 82 nM.

Regarding `CC1(Cn2cc(-c3ccc(C#N)nc3-c3ccn4cc(CO)nc4c3)cn2)CCCC1` [Example 82, 6-(2-(hydroxymethyl)imidazo [1,2-a]pyridin-7-yl)-5-(1-((1-methylcyclopentyl)methyl)-1H-pyrazol-4-yl)picolinonitrile], the EC50 was determined as 20 nM.

For `Cc1cn2ccc(-c3nc(C#N)ccc3-c3cnn(CC4C[C@@H](F)[C@H](F)C4)c3)cc2n1` [Example 83, 5-(1-(((3R,4R)-3,4-difluorocyclopentyl)methyl)-1H-pyrazol-4-yl)-6-(2-methylimidazo[1,2-a]pyridin-7-yl)picolinonitrile], the EC50 was 26 nM.

Take `N#Cc1ccc(-c2cnn(CC3C[C@@H](F)[C@H](F)C3)c2)c(-c2ccc3cccnc3c2)n1` [Example 84, 5-(1-(((3R,4R)-3,4-difluorocyclopentyl)methyl)-1H-pyrazol-4-yl)-6-(quinolin-7-yl)picolinonitrile]: the EC50 is 33 nM.

Take `Cn1cnc2cc(-c3nc(C#N)c(F)cc3-c3cnn(CC4(C)CCCC4)c3)cnc21` [Example 85, 3-fluoro-6-(3-methyl-3H-imidazo[4,5-b]pyridin-6-yl)-5-(1-((1-methylcyclopentyl)methyl)-1H-pyrazol-4-yl)picolinonitrile]: the EC50 was determined as 37 nM.

With `Cn1cnc2cc(-c3nc(C#N)c(F)cc3-c3cnn(CC4(C)CCCC4)c3)ccc21` [Example 86, 3-fluoro-6-(1-methyl-1H-benzo[d]imidazol-5-yl)-5-(1-((1-methylcyclopentyl)methyl)-1H-pyrazol-4-yl)picolinonitrile], the EC50 amounted to 18 nM.

Consider `CC1(Cn2cc(-c3cc(F)c(C#N)nc3-c3ccn4ccnc4c3)cn2)CCCC1` [Example 87, 3-fluoro-6-(imidazo[1,2-a]pyridin-7-yl)-5-(1-((1-methylcyclopentyl)methyl)-1H-pyrazol-4-yl)picolinonitrile], for which the EC50 amounted to 11 nM.

As for `Cc1cn2ccc(-c3nc(C#N)c(F)cc3-c3cnn(CC4(C)CCCC4)c3)cc2n1` [Example 88, 3-fluoro-5-(1-((1-methylcyclopentyl)methyl)-1H-pyrazol-4-yl)-6-(2-methylimidazo [1,2-a]pyridin-7-yl)picolinonitrile], the EC50 was 24 nM.

In the case of `Cn1cc2ccc(-c3nc(C#N)c(F)cc3-c3cnn(CC4(F)CCCC4)c3)cc2n1` [Example 89, 3-fluoro-5-(1-((1-fluorocyclopentyl)methyl)-1H-pyrazol-4-yl)-6-(2-methyl-2H-indazol-6-yl) picolinonitrile], the EC50 was 67 nM.

`Cc1nnc2cc(-c3nc(C#N)c(F)cc3-c3cnn(CC4(F)CCCC4)c3)ccn12` [Example 90, 3-fluoro-5-(1-((1-fluorocyclopentyl)methyl)-1H-pyrazol-4-yl)-6-(3-methyl-[1,2,4]triazolo [4,3-a]pyridin-7-yl)picolinonitrile]: the EC50 is 42 nM.

For the molecule `N#Cc1nc(-c2ccn3cc(C(F)(F)F)nc3c2)c(-c2cnn(CC3(F)CCCC3)c2)cc1F` [Example 91, 3-fluoro-5-(1-((1-fluorocyclopentyl)methyl)-1H-pyrazol-4-yl)-6-(2-(trifluoromethyl)imidazo [1,2-a]pyridin-7-yl)picolinonitrile], the EC50 is 33 nM.

Consider `COc1cc2ccc(-c3nc(F)ccc3-c3cnn(CC4(C)CCCC4)c3)cc2nn1` [Example 92, 7-(6-fluoro-3-(1-((1-methylcyclopentyl)methyl)-1H-pyrazol-4-yl)pyridin-2-yl)-3-methoxycinnoline], for which the EC50 came out at 4 nM.

Consider `Cc1cc(-c2cnn(CC3(C)CCCC3)c2)c(-c2ccn3ccnc3c2)nc1F` [Example 93, 7-(6-fluoro-5-methyl-3-(1-((1-methylcyclopentyl)methyl)-1H-pyrazol-4-yl)pyridin-2-yl)imidazo[1,2-a]pyridine], for which the EC50 is 34 nM.

Consider `Cc1cc(-c2cnn(CC3(F)CCCC3)c2)c(-c2ccn3ccnc3c2)nc1F` [Example 94, 7-(6-fluoro-3-(1-((1-fluorocyclopentyl)methyl)-1H-pyrazol-4-yl)-5-methylpyridin-2-yl) imidazo[1,2-a]pyridine], for which the EC50 came to 35 nM.

Regarding `Fc1cnc(-c2ccc3cccnc3c2)c(-c2cnn(CC3(F)CCCC3)c2)c1` [Example 95, 7-(5-fluoro-3-(1-((1-fluorocyclopentyl)methyl)-1H-pyrazol-4-yl)pyridin-2-yl) quinoline], the EC50 was determined as 80 nM.

As for `Cc1cn2ccc(-c3ncc(F)cc3-c3cnn(CC4(F)CCCC4)c3)cc2n1` [Example 96, 7-(5-fluoro-3-(1-((1-fluorocyclopentyl)methyl)-1H-pyrazol-4-yl)pyridin-2-yl)-2-methylimidazo[1,2-a] pyridine], the EC50 came out at 35 nM.

Take `Cc1nc2cc(-c3ncc(F)cc3-c3cnn(CC4(F)CCCC4)c3)ccn2c1C` [Example 97, 7-(5-fluoro-3-(1-((1-fluorocyclopentyl)methyl)-1H-pyrazol-4-yl)pyridin-2-yl)-2,3-dimethylimidazo[1,2-a] pyridine]: the EC50 was found to be 68 nM.

Values taken from US11149036B2, “3-(1H-pyrazol-4-yl)pyridine allosteric modulators of the M4 muscarinic acetylcholine receptor” (Merck Sharp & Dohme Corp., priority 2017, dated 2021).
